Reference: patent publication US5744485A, “Carbamates and ureas as modifiers of multi-drug resistance” (Vertex Pharmaceuticals Incorporated, priority 1995, dated 1998)

Assays:
[1] = tested on: L1210 mouse leukemia cells transformed with the pHaMDR1/A retrovirus carrying a MDR1 cDNA (L1210VMDRC.06); assay: MDR sensitization assay: reversal of MDR to doxorubicin in L1210VMDRC.06 cells (MTT or XTT viability, 3 days) (Table 1); conditions: for MDR Ratio (2.5 μM) / MDR Ratio 1.0 μM Cpd.: mouse, l1210vmdrc.06 cells, 72 h
Protocol: To assay the ability of the compounds according to this invention to increase the antiproliferative activity of a drug, cell lines which are known to be resistant to a particular drug may be used. These cell lines include, but are not limited to, the L1210, P388D, CHO and MCF7 cell lines. Alternatively, resistant cell lines may be developed. The cell line is exposed to the drug to which it is resistant, or to the test compound; cell viability is then measured and compared to the viability of cells which are exposed to the drug in the presence of the test compound.
We have carried out assays using L1210 mouse leukemia cells transformed with the pHaMDR1/A retrovirus carrying a MDR1 cDNA, as described by Pastan et al., Proc. Natl. Acad. Sci., Vol. 85, 4486-4490 (1988). The resistant line, labelled L1210VMDRC.06, was obtained from Dr. M. M. Gottesman of the National Cancer Institute.
Multi-drug resistance assays were conducted by plating cells (2×10^3, 1×10^4, or 5×10^4 cells/well) in 96 well microtiter plates and exposing them to a concentration range of doxorubicin (50 nM-10 μM) in the presence or absence of multi-drug resistance modifier compounds ("MDR inhibitors") of this invention (1, 2.5 or 10 μM) as described in Ford et al., Cancer Res., Vol. 50, 1748-1756. (1990). After culture for 3 days, the viability of cells was quantitated using MTT (Mossman) or XTT dyes to assess mitochondrial function. All determinations were made in replicates of 4 or 8. Also see, Mossman T., J. Immunol. Methods, Vol. 65, 55-63 (1983).
Results were determined by comparison of the IC50 for doxorubicin alone to the IC50 for doxorubicin+MDR inhibitor. An MDR ratio was calculated (IC50 Dox/IC50 Dox+Inhibitor) and the integer value used for comparison of compound potencies.

HL60/ADR cells = assay: Inhibition of MRP-mediated MDR: reversal of MDR to doxorubicin in HL60/ADR cells (XTT viability, 3 days) (Table 2); format: cell-based; conditions: Homo sapiens, 72 h, read-out: IC50 Dox alone
Protocol: We plated HL60/ADR cells in 96 well microtiter plates (4×10^4 cells/well). The cells were then exposed to various concentrations of doxorubicin (50 nM to 10 μM) in the presence or absence of various compounds of this invention at various concentrations (0.5-10 μM). After culturing the cells for 3 days, their viability was quantitated using the XTT dye method to assess mitochondrial function. Results were expressed as a ratio of the IC50 for doxorubicin alone to the IC50 for doxorubicin plus MDR inhibitor. IC50 values are expressed in nM. In all assays the intrinsic antiproliferative or cytotoxicity activity of the MDR inhibitors was also determined for HL60/ADR cells.

| Compound | MDR Ratio (2.5 μM) [1] | MDR Ratio 1.0 μM Cpd. [1] | further results |
| --- | --- | --- | --- |
| CN(C(=O)N1CCCC[C@H]1C(=O)OC(CCCc1cccnc1)CCCc1cccnc1)c1cccc(C(F)(F)F)c1 [Compound 6, (S)-1-((3-Trifluoromethylphenyl)-methyl-carbamoyl)-piperidine-2-carboxylic acid 4-pyridin-3-yl-1-(3-pyridin-3-yl-propyl)-butyl ester] | 14.6 | – | – |
| CN(C(=O)N1CCCC[C@H]1C(=O)OC(COCc1ccccc1)COCc1ccccc1)c1ccc(N2CCOCC2)cc1 [Compound 16, (S)-1-(Methyl-(4-morpholin-1-yl-phenyl)-carbamoyl)-piperidine-2-carboxylic acid 2-benzyloxy-1-(benzyloxy-methyl)-ethyl ester] | 10.7 | – | – |
| CN(C(=O)N1CCCC[C@H]1C(=O)OC(COCc1ccccc1)COCc1ccccc1)c1ccc(N2CCCCC2)cc1 [Compound 17, (S)-1-(Methyl-(4-piperidin-1-yl-phenyl)-carbamoyl)-piperidine-2-carboxylic acid 2-benzyloxy-1-(benzyloxy-methyl)-ethyl ester] | 10.7 | – | – |
| COc1cc(OC(=O)N2CCCC[C@H]2C(=O)OC(CCCc2cccnc2)CCCc2cccnc2)cc(OC)c1OC [Compound 11, (S)-Piperidine-1,2-dicarboxylic acid 1-(3,4,5-trimethoxyphenyl) ester 2-(4-pyridin-3-yl-1-(3-pyridin-3-yl-propyl)-butyl) ester] | 2.3 | 1.2 | – |
| (S)-1-((3,4,5-Trimethoxyphenyl)-methyl-carbamoyl)-piperidine-2-carboxylic acid 4-pyridin-1-yl-1-(3-pyridin-1-yl-propyl)-butyl ester [Compound 10] | – | – | IC50 Dox + 1 μM Cpd. ([1]; IC50 of doxorubicin in presence of 1 μM compound, L1210VMDRC.06 cells, 3 days): 400; IC50 Dox + 2.5 μM Cpd. ([1]; IC50 of doxorubicin in presence of 2.5 μM compound, L1210VMDRC.06 cells, 3 days): 85 |
| COc1cccc2c1C(=O)c1c(O)c3c(c(O)c1C2=O)C[C@@](O)(C(=O)CO)C[C@@H]3O[C@H]1C[C@H](N)[C@H](O)[C@H](C)O1 [Dox, doxorubicin, reference compound] | – | – | IC50 (HL60/ADR cells): 5 µM |
| O=C(OC(COCc1ccccc1)COCc1ccccc1)[C@@H]1CCCCN1C(=O)Oc1cccc2ncccc12 [Compound 18, (S)-Piperidine-1,2-dicarboxylic acid 2-(2-benzyloxy-1-(benzyloxymethyl)-ethyl)ester 1-quinolin-5-yl ester] | 13.6 | – | – |
| COc1cc(N(C)C(=O)N2CCCC[C@H]2C(=O)OC(CCCc2cccnc2)CCCc2cccnc2)cc(OC)c1OC [Compound 5, (S)-1-((3,4,5-Trimethoxyphenyl)-methyl-carbamoyl)-piperidine-2-carboxylic acid 4-pyridin-3-yl-1-(3-pyridin-3-yl-propyl)-butyl ester] | 7.8 | 2.8 | – |
| O=C(OC(CCCc1cccnc1)CCCc1cccnc1)[C@@H]1CCCCN1C(=O)N1CCCCC1 [Compound 9, (S)-1-(Piperidine-1-carbonyl)-piperidine-2-carboxylic acid 4-pyridin-3-yl-1-(3-pyridin-3-yl-propyl)-butyl ester] | 6.9 | 1.3 | – |
| COc1cc(N(C)C(=O)N2CCCC[C@H]2C(=O)OC(CCc2ccccc2)CCc2ccccc2)cc(OC)c1OC [Compound 13, (S)-1-((3,4,5-Trimethoxyphenyl)-methyl-carbamoyl)-piperidine-2-carboxylic acid 1-(2-phenyl-ethyl)-3-phenyl-propyl ester] | 11.5 | 3.0 | – |
| CC(C)c1ccc(N(C)C(=O)N2CCCC[C@H]2C(=O)OC(CCCc2cccnc2)CCCc2cccnc2)cc1 [Compound 8, (S)-1-((4-Isopropylphenyl)-methyl-carbamoyl)-piperidine-2-carboxylic acid 4-pyridin-3-yl-1-(3-pyridin-3-yl-propyl)-butyl ester] | 3.6 | 1.9 | – |
| CN(C(=O)N1CCCCC1C(=O)OC(CCc1ccccc1)CCc1ccccc1)c1ccc(S(=O)(=O)O)cc1 (stereo not drawn) [Compound 14, 4-(Methyl-(2-(1-phenethyl-3-phenyl-propoxycarbonyl)-piperidine-1-carbonyl)-amino)-benzenesulfonic acid] | 3.6 | 1.9 | – |
| CN(C(=O)N1CCCC[C@H]1C(=O)OC(CCCc1cccnc1)CCCc1cccnc1)c1ccc(C(C)(C)C)cc1 [Compound 7, (S)-1-((4-Tert-butylphenyl)-methyl-carbamoyl)-piperidine-2-carboxylic acid 4-pyridin-3-yl-1-(3-pyridin-3-yl-propyl)-butyl ester] | 15.4 | 4.0 | – |
